In US20260269287A1, “ALL-NONAQUEOUS MEMBRANE-FREE FLOW BATTERIES” (University of Cincinnati, priority 2023, published 2026):
Entries after “also recorded” stand apart in the source; their conditions may differ.

Experiments:
Format in all cases: physicochemical
[1] = Cyclic voltammetry of redox-active cathode materials in 0.1 M LiClO4/FEC; details: for reversible redox couple potential: 5 mM in 0.1 M LiClO4/FEC; for electrochemical stability on repeated CV cycling: in 0.1 M LiClO4/FEC, 1st vs 2000th cycle at 200 mV/s; for ratio of cathodic peak current (ipc) and anodic peak current (ipa): scan rates 50-200 mV/s
Method: (§1) Electrochemical characterization. CV measurements were performed to evaluate the electrochemical properties of the redox-active materials (Tri-TEMPO, C3-PTZ, and CP) as well as the crossover of the redox-active materials before and after long-term battery cycling. For the CV measurements, 5 mM Tri-TEMPO, 5 mM C3-PTZ, and 5 mM CP solutions were prepared in 0.1 M LiClO4/FEC electrolyte. A 3-mm glassy carbon disk was used as the working electrode and was polished with 5-nm Al2O3 before the measurements. A piece of Pt wire (0.5 mm) was used as the counter electrode while a Ag/Ag^+ electrode was used as the reference electrode.
as §1, with “characterizations.” for “characterization.”, “mM of” for “mM”, “Tri-TEMPO,” for “Tri-TEMPO, 5 mM”, “and” for “and 5 mM”, “FEC/LiClO4” for “LiClO4/FEC”, “5 nm” for “5-nm”
Electrochemical Characterizations. For the CV measurements, 5 mM of Tri-TEMPO, C3-PTZ, and CP solutions were prepared in FEC/LiClO4 (0.1 M) electrolyte. A glassy carbon disk (CHI Instrument, 3 mm) was used as the working electrode and was polished with Al2O3(Pine Research Instrumentation, Inc., […]) before the measurements, where water was used as the solvent to polish the electrode. A piece of Pt wire (Pine Research Instrumentation, Inc., thickness 0.5 mm, purity 99.99%) was used as the counter electrode while an Ag/Ag+ (Fisher Scientific) electrode was used as the reference electrode. The CV measurements were performed using a Bio-Logic potentiostat. Electrochemical impedance spectroscopy (EIS) was performed using a potentiostatic signal spanning from 200 KHz to 100 mHz, with an amplitude of 10 mV. The measurements were conducted under open-circuit voltage (OCV) conditions for a total of 54 data points. The charge/discharge performances were evaluated using Land and Bio-Logic potentiostats.

[2] = Solubility test in 1.5 M LiClO4/FEC; details: average of repeated tests
Method: (§2) Solubility test. A solution of 1.5 M LiClO4/FEC was used for the solubility measurements. The solution was gradually added to a vial containing known amounts of the organic compounds used as the catholytes (Tri-TEMPO, C3-PTZ, and CP). Once a clear solution was obtained, the volume of the electrolyte was determined using an analytical pipette. The solubilities of the organic compounds were calculated from the ratio of the molar amount to the electrolyte volume. These steps were repeated twice, and the average values are presented.
as §2, with “processes” for “steps”
Solubility Test. A solution of FEC/LiClO4 (1.5 M) was used for the solubility measurements under an inert argon atmosphere at a temperature of 27° C. The solution was gradually added to a vial containing known amounts of the organic compounds used as the catholytes (Tri-TEMPO, C3-PTZ, and CP). Once a clear solution was obtained, the volume (50 μL) of the electrolyte was determined using an analytical pipette (P20). The solubilities of the organic compounds were calculated from the ratio of the molar amount to the electrolyte volume. These processes were repeated twice, and the average values are presented.

[3] = Crossover in the biphasic system under static conditions (UV-visible spectroscopy and CV); details: 15 days, 0.5 M redox material, FEC/BMP-TFSI biphasic system
Method: (§3) To explore catholyte materials that meet these solubility requirements, eleven organic compounds were selected, and their solubilities in both phases of the NBS were tested. These materials included derivatives of phenothiazine, cyclopropenium, 2,2,6,6-tetramethylpiperidinyloxy (TEMPO), anthraquinone (AQ), and ferrocene (FIG. 9).
as §3, with “cyclopropenium” for “cyclopropenium,”, “33). […] The solubilities of Tri-TEMPO, C3-PTZ, and CP in 1.5 M FEC/LiClO4 were ~1.2 M, ~1 M, and 1.8 M, respectively.” for “9).”
as §3, with “(FIGS. 33 and 102). […] The solubilities of Tri-TEMPO, C3-PTZ, and CP in […] (1.5 M) were ~1.2 M, ~1 M, and 1.8 M, respectively.” for “(FIG. 9).”
Physiochemical Characterization. The UV-visible absorption spectra were recorded using a UV-visible spectrophotometer (Cary 8454 UV-Vis, Agilent Technologies). To perform UV-vis measurements, samples with concentrations below 5 mM were prepared. To achieve this, highly concentrated samples were diluted in an appropriate electrolyte solvent before conducting the UV-vis measurements. For the UV-vis calibration curve, stock solutions of Tri-TEMPO at concentrations of 0.3 M and 0.5 M were prepared in FEC/LiClO4 (1.5 M). These solutions were then further diluted to prepare solutions with concentrations of 1, 2, 3, 4, and 5 mM. In addition, a blank sample containing no redox materials was prepared to measure the UV-vis spectrum. The absorption intensity of the UV-vis spectra at different concentrations was used to construct the UV-vis calibration curve. […]

[4] = 1H NMR stability of C3-PTZ and CP at room temperature and 60° C.; details: over 10 days at 25° C. and 60° C., CD3CN
Method: The ^1H NMR spectra were recorded on a Bruker AV400 spectrometer (400 MHz). The chemical shifts were reported in ppm. To determine if CP or C3PTZ had crossed through the biphasic layer, we extracted […] samples from anolyte before and after subjecting the system to extended charge/discharge cycles (~100 cycles). These […] samples were subjected to 1H NMR analysis by combining them with […] of CD3CN, resulting in a total NMR solvent volume of […]. In addition, we followed specific sample preparation procedures to assess the stability of CP and C3-PTZ using ^1H NMR. Approximately 5 mg of either solid CP or C3-PTZ was mixed with […] of CD3CN to create NMR samples. Two NMR samples were prepared for each compound in NMR tubes equipped with J. Young air-inlet valves. Firstly, we recorded ^1H NMR spectra for these NMR samples, after which we stored one NMR tube of each sample at room temperature while the other was placed at 60° C. Subsequently, we collected a series of ^1H NMR spectra at 24-h intervals for 10 days using these samples.

[5] = Screening of cathode materials: solubilities in both phases of the FEC/BMP-TFSI nonaqueous biphasic system; details: for solubility in FEC (catholyte): FEC / cathode electrolyte FEC/LiClO4; for affinity towards the anolyte: anode electrolyte BMP-TFSI/LiTFSI
Method: as §3
as §3, with “cyclopropenium” for “cyclopropenium,”, “33). […] The solubilities of Tri-TEMPO, C3-PTZ, and CP in 1.5 M FEC/LiClO4 were ~1.2 M, ~1 M, and 1.8 M, respectively.” for “9).”
as §3, with “(FIGS. 33 and 102). […] The solubilities of Tri-TEMPO, C3-PTZ, and CP in […] (1.5 M) were ~1.2 M, ~1 M, and 1.8 M, respectively.” for “(FIG. 9).”

[6] = 1H and 19F NMR determination of LiTFSI concentration in the TEGDME and NFTTS layers; details: TEGDME/NFTTS biphasic system after salt-out
Method: Physicochemical characterizations. The UV-visible absorption spectra were collected on a UV-visible spectrophotometer (Agilent Technologies, Cary 8454 UV-Vis). To perform UV-visible measurements, dilute samples with concentrations below 5 mM were prepared. To achieve this, highly concentrated samples were diluted in an appropriate electrolyte solvent before conducting the UV-visible measurements. A blank sample containing no redox materials was prepared to measure the UV-visible spectrum. The ^1H and ^19F NMR spectra were recorded on a Bruker AV400 spectrometer (400 MHz). The chemical shifts were reported in ppm. To measure the concentration of LiTFSI in TEGDME and NFTTS layers of the biphasic system, a sample of 10 μL volume was collected from each layer and mixed with 400 μL of CDCl3 for preparing the NMR samples. ^1H NMR spectra were first recorded using these samples, and 50 μL of TBAPF6, as an internal standard, was then added to those samples before performing ^19F NMR.
For Design-I, because the gravimetric densities of the solvents followed the sequence TEGDME<NFTTS<FEC, TEGDME was used as the anolyte for the top layer, NFTTS as the ion-exchange layer in the middle, and FEC as the catholyte in the bottom layer. […] This property poses a challenge in constructing a stable triphasic system with the desired immiscibility between the layers. […]

Compound	reversible redox couple potential [1]	electrochemical stability on repeated CV cycling [1]	ratio of cathodic peak current (ipc) and anodic peak current (ipa) [1]	solubility [2]	crossover from catholyte to anolyte [3]	thermostability by 1H NMR [4]	solubility in FEC (catholyte) [5]	affinity towards the anolyte [5]	concentration of LiTFSI in the NFTTS phase [6]	concentration of LiTFSI in the TEGDME phase [6]
CCCN1c2ccccc2Sc2ccccc21 [C3-PTZ, N-propyl phenothiazine]	0.33 V vs. Ag/Ag^+	high cycling stability	~1	~ 1 M	Negligible crossover	superior thermostability; also recorded: improved thermo-stability	high solubilities	extremely poor affinity	–	–
CCCCN(CC)c1c(N(CC)CCCC)[c+]1N(CC)CCCC.F[P-](F)(F)(F)(F)F [CP, tris(dialkylamino)cyclo-propenium]	0.93 V vs. Ag/Ag^+	high cycling stability	~1	1.8 M	Negligible crossover	superior thermostability; also recorded: improved thermo-stability	high solubilities	extremely poor affinity	–	–
O=S(=O)([N-]S(=O)(=O)C(F)(F)F)C(F)(F)F.[Li+] [LiTFSI, lithium bis(trifluoromethanesulfonyl)imide]	–	–	–	–	–	–	–	–	0.14 M	1 M
CC1(C)CC(Nc2nc(NC3CC(C)(C)N(OC4CCCCC4)C(C)(C)C3)nc(NC3CC(C)(C)N(OC4CCCCC4)C(C)(C)C3)n2)CC(C)(C)N1OC1CCCCC1 [Tri-TEMPO, 2,4,6-tri-(1-cyclohex-yloxy-4-imino-2,2,6,6-tetramethylpiperidine)-1,3,5-triazine]	0.37 V vs. Ag/Ag^+	high cycling stability	~1	~ 1.2 M	Negligible crossover	–	high solubilities	extremely poor affinity	–	–
